# Molecular target: T1, h FPR2 (Homo sapiens, UniProt P25090)
# T1 construct: expressed in transfected cells
# T1 sequence (P25090 1-351): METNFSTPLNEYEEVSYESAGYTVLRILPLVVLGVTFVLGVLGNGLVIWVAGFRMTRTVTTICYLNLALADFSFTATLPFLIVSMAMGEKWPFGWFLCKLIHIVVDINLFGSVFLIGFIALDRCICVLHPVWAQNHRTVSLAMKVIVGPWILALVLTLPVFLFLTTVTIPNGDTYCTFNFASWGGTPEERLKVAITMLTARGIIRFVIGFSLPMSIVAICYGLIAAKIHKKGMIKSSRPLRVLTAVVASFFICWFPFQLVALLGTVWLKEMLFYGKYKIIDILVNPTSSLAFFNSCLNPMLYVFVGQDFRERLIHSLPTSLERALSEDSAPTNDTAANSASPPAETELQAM
# Test: Agonistic activity in hFPR2-Aq-CHO cells (FLIPR Calcium 5 fluorescence assay)
# Assay type: cell-based
# Conditions: 11 point half log dilution, final assay concentration from 10µM
# How it was run: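 hFPR2-Aq-CHO cells were loaded with Calcium 5 dye for 30 min at 37 °C and equilibrated 10 min at room temperature. Compound (11 points, 10 µM to 100 pM final) was added in HBSS/HEPES/probenecid buffer pH 7.4. Fluorescence rise over basal across 5 min, relative to no-compound wells, gave EC50.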
row,Structure (SMILES),EC50
1,"O=C(Nc1ccc(Cl)cc1)N[C@@H]1CCN(C(=O)C2CCC(O)CC2)C[C@H]1c1ccc(Cl)s1 (relative stereo) [Ex-132, trans-1-(4-Chlorophenyl)-3-[3-(5-chloro-thiophen-2-yl)-1-(4-hydroxy-cyclohexanecarbonyl)-piperidin-4-yl]-urea]",39 nM
2,"COc1ccc([C@@H]2CN(C(=O)c3ccc(C)nc3)CC[C@H]2NC(=O)Nc2ccc(C#N)cc2)nc1 (relative stereo) [Ex-128, trans-1-(4-Cyano-phenyl)-3-[3-(5-methoxy-pyridin-2-yl)-1-(6-methyl-pyridine-3-carbonyl)-piperidin-4-yl]-urea]",5 nM
3,"COCCC(=O)N1CC[C@@H](NC(=O)Nc2ccc(Cl)cc2)[C@H](c2ccc(OC)cn2)C1 (relative stereo) [Ex-79, trans-1-(4-chlorophenyl)-3-[5-methoxy-1'-(3-methoxy-propionyl)-1',2',3',4',5',6'-hexahydro-[2,3']bipyridinyl-4'-yl]-urea]",23 nM
4,"COc1ccc([C@@H]2CN(C(=O)c3ccc(C(F)(F)F)nc3)CC[C@H]2NC(=O)Nc2ccc(Cl)cc2)nc1 (single isomer, unassigned) [Ex-101, trans-1-(4-chlorophenyl)-3-[(5-methoxypyridin-2-yl)-1-{[6-(trifluoromethyl)pyridin-3-yl]carbonyl}piperidin-4-yl]urea]",0.11 nM
5,"Cc1cc(NC(=O)N[C@@H]2CCN(c3ccncn3)C[C@H]2c2ccc(Cl)cn2)sn1 (relative stereo) [Ex-13, trans-1-(5-chloro-1'-pyrimidin-4-yl-1',2',3',4',5',6'-hexahydro-[2,3']bipyridinyl-4'-yl)-3-(3-methyl-isothiazol-5-yl)-urea]",2 nM
6,"O=C(Nc1ccc(Cl)cc1)N[C@@H]1CCN(Cc2ncccn2)C[C@H]1c1ccc(Cl)s1 (single isomer, unassigned) [Ex-47, trans-1-(4-chlorophenyl)-3-[3-(5-chlorothiophen-2-yl)-1-(pyrimidin-2-ylmethyl)piperidin-4-yl]urea]",65 nM
7,"COc1ccc([C@@H]2CN(CCS(C)(=O)=O)CC[C@H]2NC(=O)Nc2cc(C)ns2)nc1 (relative stereo) [Ex-148, trans-1-[3-(5-Methoxy-pyridin-2-yl)-1-(2-methylsulfonyl-ethyl)-piperidin-4-yl]-3-(3-methyl-isothiazol-5-yl)-urea]",6 nM
8,"COc1ccc([C@@H]2CN(c3cnccn3)CC[C@H]2NC(=O)Nc2ccc(Cl)cc2)nc1 (relative stereo) [Ex-226, trans-1-(4-chloro-phenyl)-3-(5-methoxy-1'-pyrazin-2-yl-1',2',3',4',5',6'-hexahydro-[2,3']bipyridinyl-4'-yl)-urea]",0.9 nM
9,"Cc1cc(NC(=O)N[C@@H]2CCN(c3ccnc(C)n3)C[C@H]2c2ccc(Cl)cn2)sn1 (relative stereo) [Ex-21, trans-1-[5-chloro-1'-(2-methyl-pyrimidin-4-yl)-1',2',3',4',5',6'-hexahydro-[2,3']bipyridinyl-4'-yl]-3-(3-methyl-isothiazol-5-yl)-urea]",7 nM
10,"COc1ccc([C@@H]2CN(CC(F)F)CC[C@H]2NC(=O)Nc2ccc(Cl)cc2)nc1 (single isomer, unassigned) [Ex-36, trans-1-(4-chlorophenyl)-3-[1-(2,2-difluoroethyl)-3-(5-methoxypyridin-2-yl)piperidin-4-yl]urea]",85 nM
11,"O=C(Nc1ccccc1)N[C@@H]1CCN(CC2CNC2)C[C@H]1c1ccc(Cl)cn1 (relative stereo) [Ex-186, trans-1-(1'-azetidin-3-ylmethyl-5-chloro-1',2',3',4',5',6'-hexahydro-[2,3']bipyridinyl-4'-yl)-3-phenyl-urea]",27 nM
12,"Cc1cc(NC(=O)N[C@@H]2CCN(c3cc(C(F)(F)F)ncn3)C[C@H]2c2ccc(Cl)cn2)sn1 (relative stereo) [Ex-27, trans-1-[5-chloro-1'-(6-trifluoromethyl-pyrimidin-4-yl)-1',2',3',4',5',6'-hexahydro-[2,3']bipyridinyl-4'-yl]-3-(3-methyl-isothiazol-5-yl)-urea]",6 nM
13,"COc1ccc([C@@H]2CN(C3CCS(=O)(=O)CC3)CC[C@H]2NC(=O)Nc2ccc(Cl)cc2)nc1 (relative stereo) [Ex-110, trans-1-(4-chlorophenyl)-3-(1-(1,1-dioxidotetrahydro-2H-thiopyran-4-yl)-3-(5-methoxypyridin-2-yl)piperidin-4-yl)urea]",49 nM

# Next, values leading:
row,EC50,Structure (SMILES)
1,0.9 nM,"COc1cnc([C@@H]2CN(CCCO)CC[C@H]2NC(=O)Nc2ccc(Cl)cc2)c(F)c1 (relative stereo) [Ex-197, trans-1-(4-chloro-phenyl)-3-[3-fluoro-1'-(3-hydroxy-propyl)-5-methoxy-1',2',3',4',5',6'-hexahydro-[2,3']bipyridinyl-4'-yl]-urea]"
2,0.9 nM,"COc1ccc([C@@H]2CN(C3(C(N)=O)CC3)CC[C@H]2NC(=O)Nc2ccc(Cl)cc2)nc1 (relative stereo) [Ex-181, trans-1-[4-[[(4-Chlorophenyl)-carbamoyl]amino]-3-(5-methoxy-pyridin-2-yl)-piperidin-1-yl]-cyclopropane-1-carboxylic acid amide]"
3,0.9 nM,"COc1ccc([C@@H]2CNCC[C@H]2NC(=O)Nc2ccc(Cl)cc2)nc1 (single isomer, unassigned) [Ex-168, trans-1-(4-Chlorophenyl)-3-[3-(5-methoxy-pyridin-2-yl)-piperidin-4-yl]-urea]"
4,0.4 nM,"O=C(Nc1ccc(Cl)cc1)N[C@@H]1CC(=O)N(c2ccc(F)cc2)C[C@H]1c1ccc(Cl)cn1 (relative stereo) [Ex-14, trans-1-(4-chlorophenyl)-3-[5-(5-chloropyridin-2-yl)-1-(4-fluorophenyl)-2-oxopiperidin-4-yl]urea]"
5,0.13 nM,"COc1ccc([C@@H]2CN(Cc3cc(C(F)(F)F)on3)CC[C@H]2NC(=O)Nc2ccc(Cl)cc2)nc1 (single isomer, unassigned) [Ex-37, trans-1-(4-chlorophenyl)-3-[3-(5-methoxypyridin-2-yl)-1-{[5-(trifluoromethyl)-1,2-oxazol-3-yl]methyl}piperidin-4-yl]urea]"
6,0.06 nM,"CS(=O)(=O)n1ccc(CN2CC[C@@H](NC(=O)Nc3ccc(Cl)cc3)[C@H](c3ccc(Cl)s3)C2)n1 (single isomer, unassigned) [Ex-77, trans-1-(4-chlorophenyl)-3-[3-(5-chlorothiophen-2-yl)-1-[(1-methanesulfonyl-1H-pyrazol-3-yl)methyl]piperidin-4-yl]urea]"
7,0.03 nM,"COc1ccc([C@@H]2CN(CC3CCNCC3)CC[C@H]2NC(=O)Nc2ccc(Cl)cc2)nc1 (single isomer, unassigned) [Ex-124, trans-1-(4-chlorophenyl)-3-(3-(5-methoxypyridin-2-yl)-1-(piperidin-4-ylmethyl)piperidin-4-yl)urea]"

# Same assay, conditions: agonistic response at 0.1µM
row,activation at 0.1 µM,Structure (SMILES)
1,44%,"Cc1cc(NC(=O)N[C@@H]2CCN(Cc3ncccn3)C[C@H]2c2ccc(Cl)s2)sn1 (relative stereo) [Ex-63, trans-1-[3-(5-chlorothiophen-2-yl)-1-(pyrimidin-2-ylmethyl)piperidin-4-yl]-3-(3-methyl-1,2-thiazol-5-yl)urea]"
2,34%,"COc1ccc([C@@H]2CN(C(=O)CO)CC[C@H]2NC(=O)Nc2ccccc2)nc1 (relative stereo) [Ex-139, trans-1-[1-(2-Hydroxy-acetyl)-3-(5-methoxy-pyridin-2-yl)-piperidin-4-yl]-3-phenyl-urea]"

# Reference: patent EP3789378A1, “PIPERIDINES OR PIPERIDONES SUBSTITUTED WITH UREA AND HETEROARYL” (Grünenthal GmbH, priority 2019, dated 2021)
